Measured values taken from US20260356990A1, “HEPARIN DODECASACCHARIDES CONTAINING TWO ANTITHROMBIN-BINDING SEQUENCES AS WELL AS PREPARATION METHODS AND APPLICATIONS THEREOF” (SHANDONG UNIVERSITY, priority 2022, published 2026).

Legend:
factor Xa [1] = test: neutralization effect of protamine on the anti-factor Xa activity, chromogenic substrate assay; type: biochemical; conditions: in vitro, protamine at different concentrations
Experimental: Using the chromogenic substrate assay, the effect of different concentrations of protamine on the anti-Factor Xa (FXa) activity of the novel heparin dodecasaccharides I-2 and I-10 was evaluated. […] The in vitro anti-FXa activity of the novel heparin dodecasaccharide I-2 could be reversed by >80% with protamine, as shown in FIG. 4. Therefore, the heparin dodecasaccharides I-2 and I-10 prepared in the present disclosure are novel heparin molecules whose anticoagulant activity can be neutralized by protamine.

anticoagulant effect = conditions: background statement; cited from earlier work
factor Xa [2] = test: anti-factor Xa (FXa) activity, chromogenic substrate assay kit; type: biochemical; conditions: in vitro; for IC50 for anti-FXa activity: mass concentration; for IC50: molar concentration
Experimental: The anti-factor Xa (FXa) activity of the novel heparin dodecasaccharides I-2 and I-10 prepared in the present disclosure was determined using a commercially available chromogenic substrate assay kit. […] Therefore, the novel heparin dodecasaccharides I-2 and I-10 prepared in the present disclosure are specific inhibitors of factor Xa.

factor IIa = test: anti-factor IIa activity; type: biochemical; conditions: in vitro; data not shown

Row | Compound | reversal of the anti-FXa activity by protamine (in words) (factor Xa [1]) | neutralization of the anticoagulant effect by protamine (in words) (anticoagulant effect) | IC50 for anti-FXa activity (factor Xa [2]) [µg/mL] | IC50 (factor Xa [2]) [nM] | anti-factor IIa activity (factor IIa)
1 | CO[C@H]1O[C@H](COS(=O)(=O)O)[C@@H](O[C@@H]2O[C@@H](C(=O)O)[C@@H](O[C@H]3O[C@H](COS(=O)(=O)O)[C@@H](O[C@@H]4O[C@H](C(=O)O)[C@@H](O[C@H]5O[C@H](COS(=O)(=O)O)[C@@H](O)[C@H](O)[C@H]5NS(=O)(=O)O)[C@H](O)[C@H]4O)[C@H](OS(=O)(=O)O)[C@H]3NS(=O)(=O)O)[C@H](O)[C@H]2OS(=O)(=O)O)[C@H](O)[C@H]1NS(=O)(=O)O [fondaparinux sodium (Arixtra), reference compound] | almost completely unneutralizable | not neutralized by protamine | 0.01263 | 7.3 | –
2 | CC(=O)N[C@H]1[C@@H](O[C@H]2[C@H](O)[C@@H](O)[C@H](O[C@H]3[C@H](OS(=O)(=O)O)[C@@H](NS(=O)(=O)O)[C@@H](O[C@H]4[C@H](O)[C@@H](OS(=O)(=O)O)[C@H](O[C@H]5[C@H](O)[C@@H](NS(=O)(=O)O)[C@@H](O[C@H]6[C@H](O)[C@@H](O)[C@H](Oc7ccc([N+](=O)[O-])cc7)O[C@@H]6C(=O)O)O[C@@H]5COS(=O)(=O)O)O[C@H]4C(=O)O)O[C@@H]3COS(=O)(=O)O)O[C@@H]2C(=O)O)O[C@H](COS(=O)(=O)O)[C@@H](O[C@@H]2O[C@@H](C(=O)O)[C@@H](O[C@H]3O[C@H](COS(=O)(=O)O)[C@@H](O[C@@H]4O[C@@H](C(=O)O)[C@@H](O[C@H]5O[C@H](COS(=O)(=O)O)[C@@H](O[C@@H]6O[C@H](C(=O)O)[C@@H](O[C@H]7O[C@H](COS(=O)(=O)O)[C@@H](O)[C@H](O)[C@H]7NS(=O)(=O)O)[C@H](O)[C@H]6O)[C@H](OS(=O)(=O)O)[C@H]5NS(=O)(=O)O)[C@H](O)[C@H]4OS(=O)(=O)O)[C@H](O)[C@H]3NS(=O)(=O)O)[C@H](O)[C@H]2OS(=O)(=O)O)[C@@H]1O [Compound I-10] | completely reversed | – | 0.01803 | 4.54 | no significant anti-factor IIa activity
3 | CC(=O)N[C@H]1[C@@H](O[C@H]2[C@H](O)[C@@H](O)[C@H](O[C@H]3[C@H](OS(=O)(=O)O)[C@@H](NS(=O)(=O)O)[C@@H](O[C@H]4[C@H](O)[C@@H](OS(=O)(=O)O)[C@H](O[C@H]5[C@H](O)[C@@H](NS(=O)(=O)O)[C@@H](O[C@H]6[C@H](O)[C@@H](O)[C@H](Oc7ccc([N+](=O)[O-])cc7)O[C@@H]6C(=O)O)O[C@@H]5COS(=O)(=O)O)O[C@H]4C(=O)O)O[C@@H]3COS(=O)(=O)O)O[C@@H]2C(=O)O)O[C@H](COS(=O)(=O)O)[C@@H](O[C@@H]2O[C@H](C(=O)O)[C@@H](O[C@H]3O[C@H](COS(=O)(=O)O)[C@@H](O[C@@H]4O[C@@H](C(=O)O)[C@@H](O[C@H]5O[C@H](COS(=O)(=O)O)[C@@H](O[C@@H]6O[C@H](C(=O)O)[C@@H](O[C@H]7O[C@H](COS(=O)(=O)O)[C@@H](O)[C@H](O)[C@H]7NS(=O)(=O)O)[C@H](O)[C@H]6O)[C@H](OS(=O)(=O)O)[C@H]5NS(=O)(=O)O)[C@H](O)[C@H]4OS(=O)(=O)O)[C@H](O)[C@H]3NS(=O)(=O)O)[C@H](O)[C@H]2O)[C@@H]1O [Compound I-2] | – | – | 0.01677 | 4.34 | no significant anti-factor IIa activity
